Measured values published in patent publication EP3323412A1, “FORMULATION COMPRISING 4-METHYLPYRAZOLE” (Amalicon Holding AG, priority 2016, dated 2018).

Assay: in vivo
Set-up: species or system dogs
Conditions: dog, iv, 10 mg/kg
Method: The formulations of 4-MP with PEG-300 and PEG-400 show an oral bioavailability of about 110% when compared with an i.v. formulation at a dose of 10mg/kg in PK studies in dogs.
The following tables 1 to 3 show results of pharmacokinetic studies of the formulation of Example 3 (capsule containing 50 mg 4-MP and 250 mg PEG-400; Table 1) in comparison with a reference formulation (capsule containing 50 mg 4-MP and PEG-8000; Table 2) and IV administration of 4-MP. For these pharmacokinetic studies, 4-MP was administered to dogs at 10 mg/kg body weight. Table 1: Pharmacokinetic parameters of 4-methylpyrazole following oral administration of the formulation of Example 3 at 10 mg/kg: […]

Cc1cn[nH]c1 [4-methylpyrazole, 4-Methylpyrazole]
AUC(0-t) (AUC0-t): 88.3 µg·h/mL | AUC(0-inf) (AUC0-∞): 145 µg·h/mL | clearance (CL): 1.15 mL/min/kg | Cmax (Cmax): 22600 ng/mL | Vd (Vd): 0.94 L/kg | Vd (Vdss): 0.89 L/kg
